Assays:
[1] = target: T1, human PLC-β2 (Homo sapiens, UniProt Q00722); test: PLC assay using FlashPlates (96-well, immobilized [3H]PIP2 substrate); type: biochemical; conditions: purified recombinant human PLC-β2 or cytosolic human PLC-β2; hydrolysis of [3H]PIP2
T1 construct: made in house; host or cells: Sf9 cells (Spodoptera frugiperda), recombinant baculovirus
Excerpt: The hydrolysis of phosphatidylinositol-4,5-bisphosphate (PIP2) by a specific phospholipase C-β2 (PLC-β2) produces two intracellular messengers, diacylglycerol (DAG) and inositol 1,4,5-trisphosphate (IP3), which mediate the activation of protein kinase C and intracellular Ca^2+ release. A conventional organic solvent extraction method is widely used for PLC assays to isolate IP3 from the substrate PIP2. The conventional PLC-β2 assay, however is terminated by addition of acidified organic solvents and subsequent extraction and phase separation. […] Accordingly, a preferred method to test the compounds of the present invention, was developed utilizing a 96-well plate assay for PLC-β2 using immobilized radiolabeled substrate to quantitatively measure the reduction in the substrate level without a need for organic solvent extraction. The automated PLC-β2 assay described herein provides a convenient method for quantitative measurement of phospholipase C activities in a high throughput fashion. Ninety-six well Phospholipid FlashPlates were coated with 0.2 mL of 50 mM Tris/HCl (pH 7.4), 0.01% Ac-BSA and 50,000 cpm of […] (phosphatidylinositol-4,5-bisphosphate) at 4° C. for 72 h. The wells were aspirated and washed twice with PBS. The reactions were conducted directly in the wells in PLC reaction buffer containing 50 mM Tris/HCl (pH 7.2), 2.75 mM EDTA (pH 7.3), 80 mM KCl, 10 mM LiCl, 0.04% DOC and 2 mM CaCl2 in the absence or presence of the purified recombinant human PLC-β2 (prepared as described hereafter) or cytosolic human PLC-β2 from […]. Reduction of radioactivity was monitored by a Packard TopCount instrument (Packard Instrument Company, Conn., USA). […] The cells were grown in Grace's media supplemented with 10% (v/v) fetal bovine serum, 3.3 g/l yeastolate, 3.3 g/l lactalbumin hydrosylate, glutamine (6.4 mM final), 50 μg/ml gentamicin, and 50 μg/ml kanamycin. Suspension of Sf9 cells (1.0×10^6 cells/ml) were infected with 5 pfu/cell of recombinant baculovirus encoding PLC-β2 and incubated at 27° C. for 72 h. The cells were collected by centrifugation (500×g, 7 min, 4° C.) and disrupted by hypotonic lysis buffer containing 20 mM Tris/HCl, pH 7.4, 5 mM MgCl2, 2 mM EGTA, 200 μM PMSF, 200 μM benzamidine and 1 μM pepstatin A. The lysate was sonicated on ice and the nuclei and unbroken cells removed by centrifigation (500×g, 5 min, 4C.). The supernatant was recovered and clarified by centrifugation (34,000 rpm, 60 min, 4C.). The supernatant was used as a crude cytosolic fraction (Paterson, A., Boyer, J. L., Watts, V. J., Morris, A. J., Price, […]. (1995) Concentration of enzyme-dependent activation of PLC β1 and PLC β2 by Gα11 and βγ subunits. Cellular Signalling 7, 709-720). Crude cytosol prepared from Sf9 cells expressing PLC-β2 was purified initially by chromatography on a 10 ml column of Q-Sepharose FF, equilibrated in buffer A (25 mM HEPES, pH 7.2,2 mM DTT, 2 mM EDTA, 2 mM EGTA, 200 μM PMSF, 200 μM benzamidine, 1 μM pepstatin A containing 10 mM NaCl). The column was washed with 20 ml of equilibration buffer and eluted with a 200-ml gradient of 110-410 mM NaCl in buffer A. The fractions containing PLC activity were pooled and diluted with buffer A. The diluted enzyme was applied to a 4 ml column of heparin-SepharoseCL-6B equilibrated in buffer A and the column washed with 70 ml of buffer A. The column was eluted with 80 ml of gradient of 0-1.0 M NaCl in buffer A, the column eluate collected in 3 ml fractions. […]

[2] = test system: PMA-induced ear edema; test: Acute PMA-induced ear edema mouse model; type: in vivo
Excerpt: The acute PMA-induced ear edema mouse model was used to test compounds of the present […] (as described in Carlson R P, O'Neill-Davis L, Chang J. and Lewis A J, Modulation of Mouse Ear Edema by Cyclooxygenase and Lipoxygenase Inhibitors and Other Pharmacologic Agents, Agents and Actions, 1985, 17:197-204).

T1 sequence (Q00722 whole entry): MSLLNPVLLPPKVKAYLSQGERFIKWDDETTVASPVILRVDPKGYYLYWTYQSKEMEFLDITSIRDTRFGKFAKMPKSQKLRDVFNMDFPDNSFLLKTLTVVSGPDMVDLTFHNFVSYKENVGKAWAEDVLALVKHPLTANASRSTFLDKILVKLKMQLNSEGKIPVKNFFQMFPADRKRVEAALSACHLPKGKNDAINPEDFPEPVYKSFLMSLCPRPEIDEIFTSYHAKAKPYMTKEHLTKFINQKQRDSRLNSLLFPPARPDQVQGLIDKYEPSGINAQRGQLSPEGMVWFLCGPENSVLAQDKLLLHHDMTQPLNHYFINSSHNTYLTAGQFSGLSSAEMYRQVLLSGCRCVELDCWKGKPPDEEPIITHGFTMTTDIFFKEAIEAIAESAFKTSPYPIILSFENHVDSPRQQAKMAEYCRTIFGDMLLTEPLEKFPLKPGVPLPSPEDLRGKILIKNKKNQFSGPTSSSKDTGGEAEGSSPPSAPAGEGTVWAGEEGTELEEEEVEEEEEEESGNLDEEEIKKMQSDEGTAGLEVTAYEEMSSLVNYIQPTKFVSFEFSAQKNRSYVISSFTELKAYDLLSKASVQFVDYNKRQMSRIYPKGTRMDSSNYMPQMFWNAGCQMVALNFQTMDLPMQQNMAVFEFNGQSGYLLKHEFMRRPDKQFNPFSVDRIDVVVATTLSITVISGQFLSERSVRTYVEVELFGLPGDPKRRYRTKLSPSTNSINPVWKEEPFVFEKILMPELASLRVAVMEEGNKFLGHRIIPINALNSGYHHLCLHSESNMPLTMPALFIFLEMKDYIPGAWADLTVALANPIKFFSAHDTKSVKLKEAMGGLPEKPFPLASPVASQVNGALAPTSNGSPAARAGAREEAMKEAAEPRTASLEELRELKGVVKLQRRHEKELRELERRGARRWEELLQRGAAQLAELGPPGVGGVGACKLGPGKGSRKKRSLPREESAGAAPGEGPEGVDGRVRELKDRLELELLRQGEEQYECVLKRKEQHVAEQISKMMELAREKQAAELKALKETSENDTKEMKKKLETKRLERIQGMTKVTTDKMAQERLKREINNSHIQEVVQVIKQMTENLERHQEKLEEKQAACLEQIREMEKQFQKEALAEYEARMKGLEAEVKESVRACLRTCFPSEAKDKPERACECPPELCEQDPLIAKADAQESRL

SMILES	IC50 [1] [µM]	% Inhibition ([2]; 5 mpk i.v.) [%]	% Inhibition ([2]; 30 mpk i.p.) [%]	% Inhibition ([2]; 30 mpk p.o.) [%]
NC(=O)c1ccc(N2CCN(C3c4ccccc4-c4ccccc43)CC2)c(NC(=O)Nc2ccccc2)c1 [Cpd 9, 4-[4-(9H-fluoren-9-yl)-1-piperazinyl]-3-[[(phenylamino)carbonyl]amino]-benzamide]	1.9	44	52	44
O=C(Nc1ccccc1)Nc1cc(C(=O)N2CCNCC2)ccc1N1CCN(C(c2ccccc2)c2ccccc2)CC1 [Cpd 40, N-[2-[4-(diphenylmethyl)-1-piperazinyl]-5-(1-piperazinylcarbonyl)phenyl]-N′-phenylurea]	1.6	44	81	9
NC(=O)c1ccc(N2CCN(C(c3ccc(F)cc3)c3ccc(F)cc3)CC2)c(NC(=S)NCc2ccccc2)c1 [Cpd 21, 4-[4-[bis(4-fluorophenyl)methyl]-1-piperazinyl]-3-[[[(phenylmethyl)amino]thioxomethyl]amino]-benzamide]	2.3	56	83	31
CN1CCN(C(=O)c2ccc(N3CCN(C(c4ccccc4)c4ccccc4)CC3)c(NC(=O)Nc3ccccc3)c2)CC1 [Cpd 23, N-[2-[4-(diphenylmethyl)-1-piperazinyl]-5-[(4-methyl-1-piperazinyl)carbonyl]phenyl]-N′-phenylurea]	4.9			
NC(=O)c1ccc(NC(=O)Nc2ccccc2)c(N2CCN(C(c3ccccc3)c3ccccc3)CC2)c1 [Cpd 93, 3-[4-(diphenylmethyl)-1-piperazinyl]-4-[[(phenylamino)carbonyl]amino]-benzamide]	1.8			
NC(=O)c1ccc(N2CCN(C(c3ccccc3)c3ccccc3)CC2)c(NC(=O)NC2CCCCC2)c1 [Cpd 10, 3-[[(cyclohexylamino)carbonyl]amino]-4-[4-(diphenylmethyl)-1-piperazinyl]-benzamide]	14			
NC(=O)c1ccc(N2CCN(C(c3ccccc3)c3ccccc3)CC2)c(NC(=O)NCc2ccccc2)c1 [Cpd 6, 4-[4-(diphenylmethyl)-1-piperazinyl]-3-[[[(phenylmethyl)amino]carbonyl]amino]-benzamide]	9			
Cc1ccc(NC(=O)Nc2cc(C(N)=O)ccc2N2CCN(C(c3ccc(F)cc3)c3ccc(F)cc3)CC2)c(C)c1 [Cpd 15, 4-[4-[bis(4-fluorophenyl)methyl]-1-piperazinyl]-3-[[[(2,4-dimethylphenyl)amino]carbonyl]amino]-benzamide]	4.8			
O=C(Nc1ccccc1)Nc1cc(C(=O)N2CCNCC2)ccc1N1CCN(Cc2ccccc2)CC1 [Cpd 50, N-phenyl-N′-[2-[4-(phenylmethyl)-1-piperazinyl]-5-(1-piperazinylcarbonyl)phenyl]-urea]	> 25			
C[C@H](NC(=O)Nc1cc(C(=O)N2CCNCC2)ccc1N1CCN(C(c2ccccc2)c2ccccc2)CC1)c1ccccc1 [Cpd 64, N-[2-[4-(diphenylmethyl)-1-piperazinyl]-5-(1-piperazinylcarbonyl)phenyl]-N′-[(1S)-1-phenylethyl]-urea]	> 25			
O=C(Nc1ccccc1)Nc1cc(C(=O)N2CCNCC2)ccc1N1CCN(C2c3ccccc3-c3ccccc32)CC1 [Cpd 44, N-[2-[4-(9H-fluoren-9-yl)-1-piperazinyl]-5-(1-piperazinylcarbonyl)phenyl]-N′-phenylurea]	2.3			
CCCCNC(=O)Nc1cc(C(=O)N2CCNCC2)ccc1N1CCN(C(c2ccccc2)c2ccccc2)CC1 [Cpd 56, N-butyl-N′-[2-[4-(diphenylmethyl)-1-piperazinyl]-5-(1-piperazinylcarbonyl)phenyl]-urea]	> 25			
NC(=O)c1ccc(N2CCN(C(c3ccc(F)cc3)c3ccc(F)cc3)CC2)c(NC(=O)Nc2ccccc2F)c1 [Cpd 4, 4-[4-[bis(4-fluorophenyl)methyl]-1-piperazinyl]-3-[[[(2-fluorophenyl)amino]carbonyl]amino]-benzamide]	2.1			
CN1CCCN(C(=O)c2ccc(N3CCN(C(c4ccccc4)c4ccccc4)CC3)c(NC(=O)NC3CCCCC3)c2)CC1 [Cpd 31, N-cyclohexyl-N′-[2-[4-(diphenylmethyl)-1-piperazinyl]-5-[(hexahydro-4-methyl-1H-1,4-diazepin-1-yl)carbonyl]phenyl]-urea]	6.6			
O=C(Nc1ccc(C(=O)N2CCNCC2)cc1N1CCN(C(c2ccccc2)c2ccccc2)CC1)NC1CCCCC1 [Cpd 92, N-cyclohexyl-N′-[2-[4-(diphenylmethyl)-1-piperazinyl]-4-(1-piperazinylcarbonyl)phenyl]-urea]	1.6			
NCCNC(=O)c1ccc(N2CCN(C(c3ccccc3)c3ccccc3)CC2)c(NC(=O)NC2CCCCC2)c1 [Cpd 27, N-(2-aminoethyl)-3-[[(cyclohexylamino)carbonyl]amino]-4-[4-(diphenylmethyl)-1-piperazinyl]-benzamide]	2.8			
CCCCNC(=O)Nc1cc(C(N)=O)ccc1N1CCN(C(c2ccccc2)c2ccccc2)CC1 [Cpd 12, 3-[[(butylamino)carbonyl]amino]-4-[4-(diphenylmethyl)-1-piperazinyl]-benzamide]	14.5			
O=C(Nc1cc(C(=O)N2CCNCC2)ccc1N1CCN(C(c2ccccc2)c2ccc(Cl)cc2)CC1)NC1CCCCC1 (centres unmarked) [Cpd 45, N-[2-[4-[(4-chlorophenyl)phenylmethyl]-1-piperazinyl]-5-(1-piperazinylcarbonyl)phenyl]-N′-cyclohexyl-urea]	2.2			
O=C(Nc1cc(C(=O)N2CCNCC2)ccc1N1CCN(C(c2ccc(F)cc2)c2ccc(F)cc2)CC1)NC1CCCCC1 [Cpd 47, N-[2-[4-[bis(4-fluorophenyl)methyl]-1-piperazinyl]-5-(1-piperazinylcarbonyl)phenyl]-N′-cyclohexylurea]	4.2			
O=C(Nc1cc(C(=O)N2CCNCC2)ccc1N1CCN(Cc2ccccc2)CC1)NC1CCCCC1 [Cpd 52, N-cyclohexyl-N′-[2-[4-(phenylmethyl)-1-piperazinyl]-5-(1-piperazinylcarbonyl)phenyl]-urea]	> 25			

— patent publication US20040235855A1, “Phospholipase C inhibitors for use in treating inflammatory disorders” (priority 2003, published 2004)
